Legend:
[1] = test system: m2 receptors on CHO cells; experiment: Expression of m2 receptors on transfected CHO cells (tritiated QNB binding); format: cell-based, Chinese hamster; conditions: for Effect on receptor expression, given as % increase compared to control (negative values in brackets): DMSO control; for Antagonism by tamoxifen of the increase in muscarinic receptor number: in the presence of tamoxifen
Experimental: 1. Chinese hamster ovary (CHO) cells transfected with the a DNA fragment coding for a muscarinic receptor. The cell line used for the majority of the experiments was a cell line expressing the m2 receptor.
1 CHO cell line experiments The effects of various compounds on the expression of m2 receptors on CHO cells transfected with DNA for the m2 receptor were investigated. Receptor. numbers were assayed using tritiated QNB binding and subtracting non-specific binding. Compounds were dissolved in DMSO and DMSO was used as a control. Compounds were tested at a range of final concentrations. Compounds were also tested in the presence and absence of tamoxifen to try to distinguish an estrogen receptor mediated mechanism. The results are summarized in the Table 2 below, where the compounds used in the invention appear in bold, and data on other sapogenins is given for comparative purposes: […]

[2] = test system: muscarinic receptors on cardiac muscle cells; experiment: Muscarinic receptor expression on cultured neonatal cardiac muscle cells (tritiated QNB binding); format: cell-based, Sprague Dawley rats
Text: 3. Cultured cardiac muscle cells obtained from neonatal Sprague Dawley rats. The cardiac muscle cells express muscarinic receptors, typically m2. The level of these receptors falls on prolonged culture and the effects of compounds of interest in preventing the fall in receptor numbers was investigated.
3 Effects of compounds on cultured cardiac muscle cells. Cardiac muscle cells were isolated from the ventricular muscle of neonatal Sprague Dawley rats using standard techniques. Cells were cultured in vitro and muscarinic receptor numbers expressed on cell surfaces membrane fragments after homogenization of cells harvested at various time points were estimated using specific binding of tritiated QNB. […] The experiments were therefore designed to investigate the effects of the various compounds in inhibiting this decline in receptor numbers.

[3] = test system: estrogen receptor; experiment: Estrogenic activity
Text: (§1) In identifying compounds that would have use in the treatment of SDAT and other diseases characterised by reductions in receptor numbers or synaptic transmission, the inventors have given consideration to the need to identify compounds that would have the desired effect but would be devoid of any estrogenic effects, as these would be unacceptable, particularly in male patients. A number of the compounds claimed to have activity in patent application DE 4303214A1 have marked estrogenic activity and are therefore unacceptable.

[4] = target: T1, Progesterone receptor (Homo sapiens, UniProt P06401); experiment: Activity at progesterone receptor
T1 sequence (P06401 1-933): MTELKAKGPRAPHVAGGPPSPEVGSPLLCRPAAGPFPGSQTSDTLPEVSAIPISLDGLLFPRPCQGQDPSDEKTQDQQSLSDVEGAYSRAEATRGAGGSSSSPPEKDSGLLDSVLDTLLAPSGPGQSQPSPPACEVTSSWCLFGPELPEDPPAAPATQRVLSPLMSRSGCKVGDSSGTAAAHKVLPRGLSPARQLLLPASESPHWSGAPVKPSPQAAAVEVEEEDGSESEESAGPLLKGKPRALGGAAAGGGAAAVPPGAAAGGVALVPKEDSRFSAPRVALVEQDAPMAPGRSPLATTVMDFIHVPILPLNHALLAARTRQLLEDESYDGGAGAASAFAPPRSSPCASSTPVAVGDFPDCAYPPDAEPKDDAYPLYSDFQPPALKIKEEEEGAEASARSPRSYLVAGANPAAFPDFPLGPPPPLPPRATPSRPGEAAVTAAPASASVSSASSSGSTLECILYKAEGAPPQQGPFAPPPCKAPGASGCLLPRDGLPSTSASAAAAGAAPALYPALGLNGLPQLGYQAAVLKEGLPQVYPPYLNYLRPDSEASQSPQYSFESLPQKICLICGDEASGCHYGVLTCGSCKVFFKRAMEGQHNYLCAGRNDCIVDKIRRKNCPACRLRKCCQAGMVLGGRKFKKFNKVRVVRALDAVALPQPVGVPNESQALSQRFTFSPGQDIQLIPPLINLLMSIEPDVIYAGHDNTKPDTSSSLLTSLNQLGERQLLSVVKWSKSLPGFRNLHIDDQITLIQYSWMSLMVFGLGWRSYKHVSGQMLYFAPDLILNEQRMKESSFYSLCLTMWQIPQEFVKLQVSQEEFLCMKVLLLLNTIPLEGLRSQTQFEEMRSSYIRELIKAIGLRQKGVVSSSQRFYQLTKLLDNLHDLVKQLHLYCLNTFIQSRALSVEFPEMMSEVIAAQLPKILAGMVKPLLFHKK
Text: as §1

[5] = target: T2, Glucocorticoid receptor (Homo sapiens, UniProt P04150); experiment: Activity at glucocorticoid receptor
T2 sequence (P04150 1-777): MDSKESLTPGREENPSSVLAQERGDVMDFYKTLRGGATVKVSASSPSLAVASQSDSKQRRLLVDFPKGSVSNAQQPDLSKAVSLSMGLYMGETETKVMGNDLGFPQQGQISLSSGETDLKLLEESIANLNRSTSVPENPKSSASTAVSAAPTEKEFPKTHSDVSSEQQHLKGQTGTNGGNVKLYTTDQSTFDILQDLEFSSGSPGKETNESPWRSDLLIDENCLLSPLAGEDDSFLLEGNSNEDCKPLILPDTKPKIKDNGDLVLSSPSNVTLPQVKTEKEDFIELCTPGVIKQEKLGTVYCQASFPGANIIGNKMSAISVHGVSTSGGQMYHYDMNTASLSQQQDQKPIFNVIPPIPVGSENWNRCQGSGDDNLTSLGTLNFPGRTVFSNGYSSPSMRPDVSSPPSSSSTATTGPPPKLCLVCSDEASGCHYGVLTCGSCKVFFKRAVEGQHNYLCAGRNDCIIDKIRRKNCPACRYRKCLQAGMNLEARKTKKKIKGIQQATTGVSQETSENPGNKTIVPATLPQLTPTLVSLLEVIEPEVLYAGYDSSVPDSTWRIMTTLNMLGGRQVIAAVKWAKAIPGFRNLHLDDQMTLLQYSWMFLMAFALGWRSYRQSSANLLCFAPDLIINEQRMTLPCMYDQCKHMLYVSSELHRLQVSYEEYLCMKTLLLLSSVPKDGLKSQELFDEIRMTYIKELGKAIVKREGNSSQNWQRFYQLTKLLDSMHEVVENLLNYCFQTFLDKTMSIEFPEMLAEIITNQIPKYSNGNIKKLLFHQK
Text: as §1

[6] = target: T3, Testosterone receptor (Homo sapiens, UniProt P10275); experiment: Activity at testosterone receptor
T3 sequence (P10275 1-920): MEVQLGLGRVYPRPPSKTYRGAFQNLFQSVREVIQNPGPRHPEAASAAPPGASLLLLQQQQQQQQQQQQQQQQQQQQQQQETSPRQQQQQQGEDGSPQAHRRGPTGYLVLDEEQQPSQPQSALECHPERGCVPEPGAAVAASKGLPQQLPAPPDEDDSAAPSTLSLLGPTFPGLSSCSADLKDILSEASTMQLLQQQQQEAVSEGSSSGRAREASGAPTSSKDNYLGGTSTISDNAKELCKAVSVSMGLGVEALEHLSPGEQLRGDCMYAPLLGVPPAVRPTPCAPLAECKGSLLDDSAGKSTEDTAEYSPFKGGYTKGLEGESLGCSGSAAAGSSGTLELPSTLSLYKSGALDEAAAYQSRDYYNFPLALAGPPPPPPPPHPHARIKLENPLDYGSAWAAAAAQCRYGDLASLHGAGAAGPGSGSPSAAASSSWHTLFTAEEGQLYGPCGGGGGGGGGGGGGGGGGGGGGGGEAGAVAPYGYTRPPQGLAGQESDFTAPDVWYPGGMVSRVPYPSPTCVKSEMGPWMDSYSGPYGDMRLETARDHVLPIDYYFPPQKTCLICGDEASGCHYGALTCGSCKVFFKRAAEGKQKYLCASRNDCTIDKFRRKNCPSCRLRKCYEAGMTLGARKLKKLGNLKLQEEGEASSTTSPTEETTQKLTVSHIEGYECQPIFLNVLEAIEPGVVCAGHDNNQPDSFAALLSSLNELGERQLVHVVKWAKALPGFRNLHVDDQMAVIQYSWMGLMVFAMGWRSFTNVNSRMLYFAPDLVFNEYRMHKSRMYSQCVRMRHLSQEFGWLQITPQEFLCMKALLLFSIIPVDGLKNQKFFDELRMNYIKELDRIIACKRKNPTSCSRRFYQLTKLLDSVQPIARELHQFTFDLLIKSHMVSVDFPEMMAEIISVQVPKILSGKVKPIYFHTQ
Text: as §1

[7] = molar concentration of compound 10^−5

Chain of m2 receptors on CHO cells (P08172 whole entry, the tested form may be a part): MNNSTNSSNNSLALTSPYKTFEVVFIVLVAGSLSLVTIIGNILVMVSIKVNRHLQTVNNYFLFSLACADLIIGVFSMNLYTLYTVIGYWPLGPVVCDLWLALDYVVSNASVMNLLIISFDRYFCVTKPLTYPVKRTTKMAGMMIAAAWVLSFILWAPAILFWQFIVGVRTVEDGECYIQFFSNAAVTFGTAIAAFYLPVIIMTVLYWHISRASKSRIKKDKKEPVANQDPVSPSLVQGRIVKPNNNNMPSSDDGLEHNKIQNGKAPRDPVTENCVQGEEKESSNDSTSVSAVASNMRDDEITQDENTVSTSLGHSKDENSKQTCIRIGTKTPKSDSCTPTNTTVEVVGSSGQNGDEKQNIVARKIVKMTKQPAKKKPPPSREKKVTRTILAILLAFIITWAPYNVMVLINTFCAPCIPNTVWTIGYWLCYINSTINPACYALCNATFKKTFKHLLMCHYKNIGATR

| Compound | Effect on receptor expression, given as % increase compared to control (negative values in brackets) [1, 7] [%] | Concentration of compound causing a significant increase in number of receptors expressed on neonatal cardiac muscle after 10 days in vitro culture [2] | Antagonism by tamoxifen of the increase in muscarinic receptor number [1] | Effect on receptor expression, given as % increase compared to control (negative values in brackets) ([1]; molar concentration of compound 10^−6) [%] | Estrogenic activity [3] | Activity at progesterone receptor [4] | Activity at glucocorticoid receptor [5] | Activity at testosterone receptor [6] |
| --- | --- | --- | --- | --- | --- | --- | --- | --- |
| C[C@H]1CC[C@@]2(OC1)O[C@H]1C[C@H]3[C@@H]4CC[C@@H]5C[C@@H](O)CC[C@]5(C)[C@H]4CC[C@]3(C)[C@H]1[C@@H]2C [Sarsasapogenin, reference compound] | 34 | 10^−5 M |  |  |  |  |  |  |
| Smilagenin | 57 | 10^−6 M | not antagonized by tamoxifen | 18 | do not display estrogenic activity | neither compound was found to have any activity | neither compound was found to have any activity | neither compound was found to have any activity |
| Astragaloside [reference compound] |  | 10^−5 M |  |  |  |  |  |  |
| C[C@@H]1CC[C@@]2(OC1)O[C@H]1C[C@H]3[C@@H]4C[C@@H](O)[C@@]5(O)C[C@@H](O)CC[C@]5(C)[C@H]4CC[C@]3(C)[C@H]1[C@@H]2C [Anzurogenin D, Anzurogenin-D] | 22 | 10^−6 M | not antagonized by tamoxifen |  | do not display estrogenic activity | neither compound was found to have any activity | neither compound was found to have any activity | neither compound was found to have any activity |

Source: US20030118673A1, “Smilagenin and anzurogenin-D for the treatment of alzheimer's disease” (priority 1998, published 2003)
